# Test results: PMC8639922, “KSHV transactivator-derived small peptide traps coactivators to attenuate MYC and inhibits leukemia and lymphoma cell growth” (Communications Biology, 2021)
# Square brackets hold non-standard residues; d marks the D form. Peptide text beside a SMILES is read from it. Orn = NCCC[C@H](N)C(=O)O; βAla = NCCC(=O)O
# System: PEL-derived human cytokines
# Assay: Olink INFLAMMATION panel, cytokines in ascites fluid of PEL xenograft
# Type: in vivo, mouse
# Design: key to IL8 / CXCL10 / FGF-19 / IL-12B / TRAIL / VEGFA / IL-17A / CST5 / IL-18R1 / HGF / ARTN / bNGF: NPX, log2-normalized protein expression; key to 4E-BP1 / TWEAK / LAP TGF-beta-1 / Beta-NGF / LAPTGFb-1 / TWAEK / 4EBP-1 / IL-8: log2-scale normalized protein expression (NPX) values
# Experimental: Fig. 6 VGN50 inhibits BCBL-1 cell growth in xenograft mice. a PEL-xenograft. BCBL-1 cells (2 × 10^7 cells) were injected i.p. Peptide (10 mg/kg) was administrated i.p. daily and tumor growth was monitored by measurement of body weight (n = 6–9 mice per group). b Ascites volume and PEL cell counts. In a separate experiment, ascites volume and PEL cell counts in ascites fluid were measured at day 10. (n = 3–4 mice per group) c Induction of atrophy. BCBL-1 cells isolated from ascites fluid were measured for FSC-A and SSC-A by flow cytometry. […] (n = 3) d Expression of inflammatory cytokines. Principal component analysis based on expression levels of inflammatory cytokine contents in ascites fluid. e Cytokine heat map. Heatmap generated based on abundance of the indicated cytokines in ascites fluids. Ascites fluid was taken at day 10. a–c Data were analyzed using ordinary one-way Anova followed by Tukey’s multiple comparisons test.
# Since PELs are frequently involved in effusions in multiple body cavities in human patients and the amounts of inflammatory cytokines in the effusion are strong prognostic factors, we also extracted ascites fluid and profiled it to see if the PEL cell-derived human cytokine profile was also altered by continued VGN50 treatment.
# PEL-derived cytokine profiles in ascites were measured with Olink analysis service with the Olink INFLAMMATION panel using proximity extension technology, a high-throughput multiplex proteomic immunoassay. In short, the panel includes 92 immune-related proteins, primarily cytokines and chemokines. The assay utilizes epitope-specific binding and hybridization of a set of paired oligonucleotide antibody probes, which is subsequently amplified using quantitative PCR, resulting in log base 2-normalized protein expression (NPX) values. The data was processed and analyzed with Olink Insight Stat Analysis software.
compound,measurement,setting,value
CC(C)C[C@H](NC(=O)CCNC(=O)[C@H](CCCNC(=N)N)NC(=O)[C@H](CCCNC(=N)N)NC(=O)[C@H](CCCNC(=N)N)NC(=O)[C@H](CCCN)NC(=O)[C@H](CCCNC(=N)N)NC(=O)[C@H](CCCNC(=N)N)NC(=O)[C@H](CCCCN)NC(=O)[C@H](CCCCN)NC(=O)[C@H](N)CCCNC(=N)N)C(=O)N[C@@H](CO)C(=O)N[C@@H](CO)C(=O)N[C@@H](C)C(=O)N[C@@H](C)C(=O)N[C@@H](C)C(=O)NCC(=O)N[C@@H](CC(C)C)C(=O)N[C@@H](Cc1ccc(O)cc1)C(=O)N[C@@H](CCC(N)=O)C(=O)N[C@@H](CC(C)C)C(=O)N[C@@H](CC(=O)O)C(=O)N[C@H](C(=O)O)[C@@H](C)O [Mt-P] (H-[dR]KKRR[Orn]RRR[βAla]LSSAAAGLYQLDT-OH; N-terminus and C-terminus assumed),4E-BP1,"sheet Fig.6d-e, animal 1",11.1631
same,ARTN,"sheet Fig.6d-e, animal 1",5.386
same,Beta-NGF,"sheet Fig.6d-e, animal 1",-0.391
same,CST5,"sheet Fig.6d-e, animal 1",1.859
same,CXCL10,"sheet Fig.6d-e, animal 1",13.3461
same,FGF-19,"sheet Fig.6d-e, animal 1",2.165
same,HGF,"sheet Fig.6d-e, animal 1",6.396
same,IL8,"sheet Fig.6d-e, animal 1",0.86
same,IL-12B,"sheet Fig.6d-e, animal 1",2.007
same,IL-17A,"sheet Fig.6d-e, animal 1",3.739
same,IL-18R1,"sheet Fig.6d-e, animal 1",4.131
same,LAP TGF-beta-1,"sheet Fig.6d-e, animal 1",6.199
same,TRAIL,"sheet Fig.6d-e, animal 1",1.379
same,TWEAK,"sheet Fig.6d-e, animal 1",8.018
same,VEGFA,"sheet Fig.6d-e, animal 1",14.7314
same,4E-BP1,"sheet Fig.6d-e, animal 2",11.0835
same,ARTN,"sheet Fig.6d-e, animal 2",5.243
same,Beta-NGF,"sheet Fig.6d-e, animal 2",-0.4548
same,CST5,"sheet Fig.6d-e, animal 2",2.027
same,CXCL10,"sheet Fig.6d-e, animal 2",13.3201
same,FGF-19,"sheet Fig.6d-e, animal 2",2.0905
same,HGF,"sheet Fig.6d-e, animal 2",6.305
same,IL8,"sheet Fig.6d-e, animal 2",0.7089
same,IL-12B,"sheet Fig.6d-e, animal 2",2.204
same,IL-17A,"sheet Fig.6d-e, animal 2",3.881
same,IL-18R1,"sheet Fig.6d-e, animal 2",4.133
same,LAP TGF-beta-1,"sheet Fig.6d-e, animal 2",6.253
same,TRAIL,"sheet Fig.6d-e, animal 2",1.569
same,TWEAK,"sheet Fig.6d-e, animal 2",8.091
same,VEGFA,"sheet Fig.6d-e, animal 2",14.6793
same,4E-BP1,"sheet Fig.6d-e, animal 3",10.8123
same,ARTN,"sheet Fig.6d-e, animal 3",5.723
same,Beta-NGF,"sheet Fig.6d-e, animal 3",-0.3222
same,CST5,"sheet Fig.6d-e, animal 3",2.133
same,CXCL10,"sheet Fig.6d-e, animal 3",13.0806
same,FGF-19,"sheet Fig.6d-e, animal 3",2.37
same,HGF,"sheet Fig.6d-e, animal 3",6.6
same,IL8,"sheet Fig.6d-e, animal 3",0.7009
same,IL-12B,"sheet Fig.6d-e, animal 3",2.082
same,IL-17A,"sheet Fig.6d-e, animal 3",4.127
same,IL-18R1,"sheet Fig.6d-e, animal 3",4.157
same,LAP TGF-beta-1,"sheet Fig.6d-e, animal 3",6.359
same,TRAIL,"sheet Fig.6d-e, animal 3",1.603
same,TWEAK,"sheet Fig.6d-e, animal 3",8.37
same,VEGFA,"sheet Fig.6d-e, animal 3",14.8087
same,4EBP-1,"sheet SFig5, animal 1",11.7332
same,ARTN,"sheet SFig5, animal 1",5.386
same,CST5,"sheet SFig5, animal 1",1.859
same,FGF-19,"sheet SFig5, animal 1",2.165
same,HGF,"sheet SFig5, animal 1",4.42
same,IL-8,"sheet SFig5, animal 1",0.86
same,IL-12B,"sheet SFig5, animal 1",2.007
same,IL-17A,"sheet SFig5, animal 1",1.782
same,IL-18R1,"sheet SFig5, animal 1",4.131
same,LAPTGFb-1,"sheet SFig5, animal 1",4.365
same,TRAIL,"sheet SFig5, animal 1",1.379
same,TWAEK,"sheet SFig5, animal 1",5.713
same,VEGFA,"sheet SFig5, animal 1",13.2543
same,bNGF,"sheet SFig5, animal 1",-0.391
same,4EBP-1,"sheet SFig5, animal 2",11.7927
same,ARTN,"sheet SFig5, animal 2",5.243
same,CST5,"sheet SFig5, animal 2",2.027
same,CXCL10,"sheet SFig5, animal 2",11.2953
same,FGF-19,"sheet SFig5, animal 2",2.0905
same,HGF,"sheet SFig5, animal 2",4.269
same,IL-8,"sheet SFig5, animal 2",0.7089
same,IL-12B,"sheet SFig5, animal 2",2.204
same,IL-17A,"sheet SFig5, animal 2",1.942
same,IL-18R1,"sheet SFig5, animal 2",4.133
same,LAPTGFb-1,"sheet SFig5, animal 2",4.29
same,TRAIL,"sheet SFig5, animal 2",1.569
same,TWAEK,"sheet SFig5, animal 2",5.701
same,VEGFA,"sheet SFig5, animal 2",13.2545
same,bNGF,"sheet SFig5, animal 2",-0.4548
same,4EBP-1,"sheet SFig5, animal 3",11.484
same,ARTN,"sheet SFig5, animal 3",5.723
same,CST5,"sheet SFig5, animal 3",2.133
same,CXCL10,"sheet SFig5, animal 3",11.1526
same,FGF-19,"sheet SFig5, animal 3",2.37
same,HGF,"sheet SFig5, animal 3",4.697
same,IL-8,"sheet SFig5, animal 3",0.7009
same,IL-12B,"sheet SFig5, animal 3",2.082
same,IL-17A,"sheet SFig5, animal 3",2.371
same,IL-18R1,"sheet SFig5, animal 3",4.157
same,LAPTGFb-1,"sheet SFig5, animal 3",4.688
same,TRAIL,"sheet SFig5, animal 3",1.603
same,TWAEK,"sheet SFig5, animal 3",6.152
same,VEGFA,"sheet SFig5, animal 3",13.6674
same,bNGF,"sheet SFig5, animal 3",-0.3222
